Tests used:
Type in all cases: in vivo
[1] = test system: red mites (Dermanyssus gallinae); test: Test Example 1: Control Effect 1 on Red Mites, Pasteur pipette contact test, 72 hours; settings: for Ratio of dead and affected mites: 72 hours, unfed adult red mites
Text: The tip of a Pasteur pipette was sealed with Parafilm, and a methanol solution of the compound A, or each pesticide (another pesticide) (single agent) described in the left columns of Tables 2, 4, and 6 described below, or a mixture (mixed agent) of the compound A and each pesticide described in the left column of Tables 2, 4, and 6 described below at a predetermined concentration was poured into the pipette through an upper portion thereof. One minute later, the Parafilm at the tip was detached, and the liquid agent was discharged. After the pipette was air dried, absorbent cotton was inserted to an upper end of the pipette, and 20 unfed adult red mites (Dermanyssus gallinae) were released into the pipette. After the tip was sealed with Hemato-Seal, the pipette was stored in the dark in an incubator at a temperature of 27 to 28° C. and a humidity of 50 to 60%. […] Then, the ratio (%) of dead and affected mites was calculated according to the following formula. The ratio (%) of dead and affected mites={(the number of dead mites+the number of affected mites)/(the number of survived mites+the number of affected mites+the number of dead mites)}×100

[2] = test system: red mites (Dermanyssus gallinae); test: Test Example 3: Control Effect 3 on Red Mites, Pasteur pipette contact test, 3 hours; settings: unfed adult red mites
Text: The tip of a Pasteur pipette was sealed with Parafilm, and a methanol solution of the compound represented by the formula (11), the compound represented by the formula (12), or flupyrimin (single agent), or a mixture (mixed agents) of the compound represented by the formula (11) or the compound represented by the formula (12) and flupyrimin at a predetermined concentration was poured into the pipette from an upper portion thereof. One minute later, the Parafilm at the tip was removed, and the liquid agent was discharged. After the pipette was air dried, absorbent cotton was inserted to an upper end of the pipette, and 20 unfed adult red mites (Dermanyssus gallinae) were released into the pipette. After the tip was sealed with Hemato-Seal, the pipette was stored in the dark in an incubator at a temperature of 27 to 28° C. and a humidity of 50 to 60%. After 3 hours had passed since the treatment, the mites were observed under a stereomicroscope to determine whether the mites were dead or alive and whether the mites were affected. Then, the ratio (%) of dead and affected mites was calculated according to the following formula. The ratio (%) of dead and affected mites={(the number of dead mites+the number of affected mites)/(the number of survived mites+the number of affected mites+the number of dead mites)}×100

[3] = test system: red mites (Dermanyssus gallinae); test: Test Example 2: Control Effect 2 on Red Mites, Pasteur pipette contact test, 3 hours; settings: unfed adult red mites
Experimental: One minute later, the Parafilm at the tip was detached, and the liquid agent was discharged. […] Then, the ratio (%) of dead and affected mites was calculated according to the following formula.

[4] = Dermanyssus gallinae, 72 h, read-out: Ratio of dead and affected mites

CNC(=O)Oc1cccc2c1OC(C)(C)O2 [Bendiocarb, bendiocarb]
pest or weed control at 50 ppm [1, 4]: 30.5%

CNC(=O)Oc1cccc2ccccc12 [Carbaryl, carbaryl]
pest or weed control at 50 ppm [1, 4]: 46.6%

CC1(C)[C@H](C(=O)O[C@H](C#N)c2cccc(Oc3ccccc3)c2)[C@@H]1C=C(Br)Br [Deltamethrin, deltamethrin]
pest or weed control at 50 ppm [1, 4]: 75.8%

COP(=S)(OC)Oc1ccc([N+](=O)[O-])c(C)c1 [Fenitrothion, fenitrothion]
pest or weed control at 200 ppm [1, 4]: 71.8%

CCC(C)c1ccccc1OC(=O)NC (stereo not drawn) [Fenobucarb, fenobucarb]
pest or weed control at 50 ppm [1, 4]: 43.5%

O=C(N=c1ccccn1Cc1ccc(Cl)nc1)C(F)(F)F [Flupyrimin, flupyrimin]
Ratio of dead and affected mites ([1]; single agent 50 ppm): 65.3% | Ratio of dead and affected mites ([1]; single agent 200 ppm): 58.6% | Ratio of dead and affected mites ([1]; single agent 1000 ppm): 83.2% | Ratio of dead and affected mites ([1]; single agent 5000 ppm): 75.0% | Ratio of dead and affected mites ([2]; single agent 50 ppm): 48.8% | Ratio of dead and affected mites ([2]; single agent 200 ppm): 48.5% | Ratio of dead and affected mites ([2]; single agent 1000 ppm): 40.9%

CCc1nc2ccc(F)c(F)c2c(OC(=O)C2CC2)c1C [Formula (11)]
Ratio of dead and affected mites ([2]; single agent 10 ppm): 53.4% | Ratio of dead and affected mites ([2]; single agent 20 ppm): 62.9% | Ratio of dead and affected mites ([3]; single agent 5 ppm): 53.7% | Ratio of dead and affected mites ([3]; single agent 10 ppm): 53.4% | Ratio of dead and affected mites ([3]; single agent 20 ppm): 62.9%

CCc1nc2ccc(F)c(F)c2c(OC(=O)OC)c1C [Formula (12)]
Ratio of dead and affected mites ([2]; single agent 20 ppm): 65.5% | Ratio of dead and affected mites ([3]; single agent 10 ppm): 50.0% | Ratio of dead and affected mites ([3]; single agent 20 ppm): 65.5%

COC(=O)Oc1c(C)c(C)nc2ccc(F)c(F)c12 [Formula (13)]
Ratio of dead and affected mites ([3]; single agent 10 ppm): 89.9%

CC1(C)C(C=C(Cl)Cl)C1C(=O)OCc1cccc(Oc2ccccc2)c1 (stereo not drawn) [Permethrin, permethrin]
pest or weed control at 50 ppm [1, 4]: 49.6%

CC(C)=CC1C(C(=O)OCc2cccc(Oc3ccccc3)c2)C1(C)C (stereo not drawn) [Phenothrin, phenothrin]
pest or weed control at 500 ppm [1, 4]: 65.2%

CNC(=O)Oc1ccccc1OC(C)C [Propoxur, propoxur]
pest or weed control at 200 ppm [1, 4]: 77.9%

CC(C)=CC1C(C(=O)OCN2C(=O)C3=C(CCCC3)C2=O)C1(C)C (stereo not drawn) [Tetramethrin, tetramethrin (phthalthrin)]
pest or weed control at 10 ppm [1, 4]: 39.8%

COP(=O)(OC)C(O)C(Cl)(Cl)Cl (stereo not drawn) [Trichlorfon, trichlorfon]
pest or weed control at 200 ppm [1, 4]: 84.7%

abamectin
Ratio of dead and affected mites ([1]; single agent 50 ppm): 69.9%
